Source: EP3219306B1, “COMPOSITION COMPRISING CITICOLINE AND HOMOTAURINE FOR PREVENTING AND TREATING NEUODEGENERATIVE DISEASES AND COGNITIVE DISORDERS” (NEURAXPHARM ITALY S.P.A., priority 2016, dated 2017)
Entries after “also recorded” stand apart in the source; their conditions may differ.

Assays:
retinal cells = conditions: for cytotoxicity (cell death) on the cell cultures: 1, 10, 100 µM for 24 h; for toxicity to retinal cells (MTT): 1, 10 or 100 µM
Description: (§1) The MTT assay was used to measure the viability of both neuronal and retina cells. The cells were prepared in a 96-well plate in DMEM-F12 with 7% FBS. After cultured in DMEM-F12 without serum for 12 h, Ab25-35 ([…]) or glucose oxidase (GOX) alone or in combination with homotaurine (Hom), citicoline (CITC) or Hom + CITC were added to the medium. Twenty-four hours later, the cells were incubated with […] MTT (Roche, 0.5 mg/ml) at 37 °C for 4 hours, then the crystals were dissolved in […] DMSO. Absorbance at 570 nm was measured with a spectrophotometer (TECAN Infinite M200, Switzerland).

[1] = Bioavailability of [methyl-14C]-labelled citicoline by oral and venous route, radioactivity in plasma; format: in vivo, experimental animal models
From the text: In experimental animal models, the applicant compared the bioavailability by oral and venous route of citicoline, labeling it with a radioactive label -[methyl-14C].

Water solubility = format: physicochemical
[2] = test system: human retina pigment epithelium (ARPE-19); assay: MTT assay, cell viability of retina cells against cytotoxicity induced by glucose oxidase (GOX); format: cell-based; conditions: cytotoxicity induced by GOX 50 mU/ml; 1 µM; n = 5
Description: as §1

[3] = Randomized double-blind, placebo-controlled trial in subjects with medium to moderate Alzheimer's disease; format: in vivo, human; conditions: 50, 100, 150 mg homotaurine in combination with 500, 750 and 1000 mg sodium citicoline
Description: Studies to evaluate the pharmacokinetic-pharmacodynamic effect of compositions for use of the invention have provided positive indications about the activity. In particular, in a randomized double-blind, placebo-controlled trial in which 58 subjects with from medium to moderate Alzheimer's disease were administered 50, 100, 150 mg of homotaurine in combination with 500, 750 and 1000 mg of sodium citicoline.

[4] = 50 mg per day, individuals with an average decline of cognitive functions; cited from earlier work
Aβ40 = Aβ40 (Homo sapiens, UniProt P05067); conditions: 8-week treatment, 30 or 100 mg/kg/day; cited from earlier work
Aβ42 = Aβ42 (Homo sapiens, UniProt P05067); conditions: 8-week treatment, 30 or 100 mg/kg/day; cited from earlier work
Sequence of Aβ42 (P05067 672-713 limits assumed, species assumed): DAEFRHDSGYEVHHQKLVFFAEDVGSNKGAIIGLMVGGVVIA

Sequence of Aβ40 (P05067 672-711 limits assumed, species assumed): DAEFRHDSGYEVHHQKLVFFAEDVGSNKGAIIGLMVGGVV

Row | Compound | cytotoxicity (cell death) on the cell cultures (retinal cells) | toxicity to retinal cells (MTT) (retinal cells) | bioavailability ([1]; oral administration) | equivalence of the two alternative administration routes (percentage of radioactivity in plasma over time) ([1]; oral vs venous route, [methyl-14C] label) | water solubility (Water solubility) | cell viability (MTT) [2] | crossing of the blood-brain barrier [3] | effect on atrophy of the hippocampus [4] | effect on episodic memory loss [4] | plasma level of Aβ40 (Aβ40) | plasma level of Aβ42 (Aβ42)
1 | C[N+](C)(C)CCOP(=O)(O)OP(=O)([O-])OC[C@H]1O[C@@H](n2ccc(N)nc2=O)[C@H](O)[C@@H]1O [citicoline, 2-[{[5-(4-amino-2-oxopyrimidin-1-yl)-3,4-dihydroxyoxolan-2-yl]methoxy-hydroxyphosphoryl}oxy-hydroxyphosphoryl]oxyethyl-thrimethylazanium] | None of the concentrations induced cell death; also recorded: substantial absence of cytotoxicity | no evidence of selective toxicity | greater than 90% | about 90% | high | – | – | – | – | – | –
2 | NCCCS(=O)(=O)O [homotaurine, 3-amino-1-propanesulfonic acid] | None of the concentrations induced cell death; also recorded: substantial absence of cytotoxicity | no evidence of selective toxicity | – | – | – | able to improve the cell viability | crossed the blood-brain barrier | positive effect | positive effect | able to reduce | able to reduce
3 | C[N+](C)(C)CCOP(=O)([O-])OP(=O)([O-])OC[C@H]1O[C@@H](n2ccc(N)nc2=O)[C@H](O)[C@@H]1O.[Na+] [sodium citicoline] | – | – | – | – | – | – | crossed the blood-brain barrier | – | – | – | –
